According to US5110976A, “Insecticidal composition comprising more than one active ingredient” (priority 1985, dated 1992):

Tests used:
Tribolium confusum [1] = test: Contact test, mixtures of Ia and Ib of various ratio (Table 13); format: in vivo, flour beetle (Tribolium confusum)
Procedure: (§1) The active ingredient is dissolved in a 1:2 mixture of oil and acetone; filter paper discs (Whatman No. 1, diameter 9 cm) are impregnated with the solutions of the corresponding stereoisomers and enantiomer-pairs, respectively. The acetone is allowed to evaporate, whereupon the insects are exposed to filter papers discs placed in Petri-dishes. Three parallels are used on each dose and 15 insects are placed into each Petri-dish. The percental mortality is determined after 24 hours. The corrected percent mortality is calculated by means of the Abbot Formula.
In Table 13 the insecticidal effect of mixtures of enantiomer-pairs Ia and Ib of various ratio is shown on flour beetle (Tribolium confusum). The test method is that disclosed in Example 43.

Colorado potato beetle = test: Topical test on Colorado potato beetle (Table 14); format: in vivo, Colorado potato beetle (Leptinotersa decemlineata), imago
Procedure: In Table 14 the activity on Colorado potato beetle is shown.
The test materials are dissolved in 2-ethoxyethanol (Cellosolve). One 0.3 μl drop of the solution is applied to the abdominal sterna of the imago. The treatment is carried out by using 2 parallels and 10 insects for each dose. […]

Tribolium confusum [2] = test: Contact test on Tribolium confusum (Table 12); format: in vivo; settings: Tribolium confusum, 24 h; for mortality at 110 µg/disc: 0.11 mg/disc; for mortality at 330 µg/disc: 0.33 mg/disc; for mortality at 1000 µg/disc: 1.00 mg/disc; for mortality at 3000 µg/disc: 3.00 mg/disc
Procedure: as §1
It appears from Table 12 that the increased activity shown in Example 41 is due to the synergistic effect of the trans-isomers to Tribolium confusum.

T. confusum [3] = test: Topical LD50 (Table 3); format: in vivo, 1-2 weeks' old imagos; settings: topical, abdominal side
Procedure: (§2) In Table 3 the LD50 values of the Ig and Ii isomers and those of the Ib isomer-pair are disclosed. The data are topically measured.
(§3) The active ingredients are dissolved in 2-ethoxyethanol (cellosolve) and 0.3 μl droplets of the solutions are applied onto the dorsal cuticulum of 3-5 days' old female house flies. 10 animals are used and 2 parallels are carried out for each dose. The tests are carried out for 5 dose levels between activity limits of 0% and 100%. After treatment the flies are placed into glass vials. Mortality is determined after 24 hours. Data are transformed to log10 dosage and probit mortality. LD50 and confidence interval values are calculated by linear regression analysis of the log-probit data. The expected values required for the calculation of synergism are obtained by means of harmonic average. The synergistic factor is the quotient of the expected and measured values.
The active ingredients are dissolved in 2-ethoxyethanol and 0.3 μl droplets of the solutions are applied onto the abdominal side of 1-2 weeks' old imagos. Treatment is carried out with 2 parallels and 20 animals for each dose by using 5 dose levels in the range between activity limits of 0% and 100%. Evaluation and determination of LD50 values and synergistic factors are carried out as described in Example 21.

T. confusum [4] = test: Contact method, synergism between stereoisomers (Table 2); format: in vivo; settings: Tribolium confusum, 24 h
Procedure: The stereoisomers are dissolved in a 1:2 mixture of mineral oil and acetone and filter paper discs (Whatman No. 1., diameter 9 cm) are impregnated with the corresponding dosage of the solution of the active ingredient. The acetone is allowed to evaporate and the insects are examined on filter paper discs placed into Petri-dishes. Three parallels are used for each dose and 15 animals are placed in each Petri-dish. Mortality rate is determined after 24 hours. The corrected mortality % data are calculated by means of the Abbot formula.
The test is carried out on T. confusum and the following results are obtained by the contact method for various active ingredient doses.
The test is carried out according to the method described in Example 20.

T. confusum [5] = test: Activity as function of time, toxic symptoms (Table 16); format: in vivo, flour beetle (T. confusum), imagos
Procedure: as §1
Activity of cypermethrin stereoisomer-pairs as function of time on flour beetle (T. Confusum).
Flour beetle (T. confusum) imagos are exposed in Petri-dishes according to the method described in Example 43. For each dose 3 parallels are used and 15 animals are applied for each parallel test. In each point of time the insects lying on their backs are counted and the percental results are expressed in Table 16.

Musca domestica [6] = test: Topical LD50 (Table 3); format: in vivo, house fly (Musca domestica), 3-5 days' old females; settings: topical, dorsal cuticulum; 24 hours
Procedure: as §2, §3

Musca domestica [7] = test: Filter paper disc contact test (Table 11); format: in vivo, house fly (Musca domestica); settings: Musca domestica, 24 h
Procedure: In Table 1 the activity of various stereoisomers of cypermethrin on the house fly (Musca domestica) is shown.
as §1

SMILES | 24 hours' mortality % (Tribolium confusum [1]; 0.02 mg/disc, 1440 min) | mortality at 330 µg/disc (Tribolium confusum [2]) | mortality at 1000 µg/disc (Tribolium confusum [2]) | mortality at 3000 µg/disc (Tribolium confusum [2]) | % of insects showing toxic symptoms (T. confusum [5]; 30 minutes) | % of insects showing toxic symptoms (T. confusum [5]; 30 minutes, 0.33 mg/disc) | % of insects showing toxic symptoms (T. confusum [5]; 30 minutes, 1.00 mg/disc) | % of insects showing toxic symptoms (T. confusum [5]; 30 minutes, 3.00 mg/disc) | % of insects showing toxic symptoms (T. confusum [5]; 60 minutes) | % of insects showing toxic symptoms (T. confusum [5]; 60 minutes, 0.33 mg/disc) | % of insects showing toxic symptoms (T. confusum [5]; 60 minutes, 1.00 mg/disc) | % of insects showing toxic symptoms (T. confusum [5]; 60 minutes, 3.00 mg/disc) | % of insects showing toxic symptoms (T. confusum [5]; 120 minutes) | % of insects showing toxic symptoms (T. confusum [5]; 120 minutes, 0.33 mg/disc) | % of insects showing toxic symptoms (T. confusum [5]; 120 minutes, 1.00 mg/disc) | % of insects showing toxic symptoms (T. confusum [5]; 120 minutes, 3.00 mg/disc) | % of insects showing toxic symptoms (T. confusum [5]; 180 minutes) | % of insects showing toxic symptoms (T. confusum [5]; 180 minutes, 0.33 mg/disc) | % of insects showing toxic symptoms (T. confusum [5]; 180 minutes, 1.00 mg/disc) | % of insects showing toxic symptoms (T. confusum [5]; 180 minutes, 3.00 mg/disc) | other results
CC1(C)C(C=C(Cl)Cl)C1C(=O)OC(C#N)c1cccc(Oc2ccccc2)c1 (stereo not shown) [Ia:Ib = 3:7] | 20% | – | – | – | – | – | – | – | – | – | – | – | – | – | – | – | – | – | – | – | 24 hours' mortality % (Tribolium confusum [1]; 0.06 mg/disc, 1440 min): 81%; 24 hours' mortality % (Tribolium confusum [1]; 0.25 mg/disc): 100%; 24 hours' mortality % (Tribolium confusum [1]; 1.00 mg/disc): 100%; 24 hours' mortality % (Colorado potato beetle; 0.05 μg/beetle): 45%; 24 hours' mortality % (Colorado potato beetle; 0.10 μg/beetle): 65%; 24 hours' mortality % (Colorado potato beetle; 0.20 μg/beetle): 75%; 24 hours' mortality % (Colorado potato beetle; 0.40 μg/beetle): 85%
CC1(C)[C@@H](C=C(Cl)Cl)[C@@H]1C(=O)O[C@@H](C#N)c1cccc(Oc2ccccc2)c1 [Ii] | – | 0% | 71% | 90% | 0% | 0% | 0% | 15% | 0% | 0% | 0% | 70% | 0% | 0% | 0% | 100% | 0% | 0% | 0% | 100% | mortality at 110 µg/disc (Tribolium confusum [2]): 0%; LD50 measured (T. confusum [3]): 1291.8 ng/insect; mortality at 110 µg/disc (T. confusum [4]; 0.11 mg/disc): 0%; mortality at 330 µg/disc (T. confusum [4]; 0.33 mg/disc): 0%; mortality at 1000 µg/disc (T. confusum [4]; 1.00 mg/disc): 71%; mortality at 3000 µg/disc (T. confusum [4]; 3.00 mg/disc): 90%; LD50 measured (Musca domestica [6]): 141.9 ng/insect
CC1(C)[C@H](C(=O)O[C@H](C#N)c2cccc(Oc3ccccc3)c2)[C@@H]1C=C(Cl)Cl [If] | – | 100% | 100% | 100% | 0% | 0% | 48% | 64% | 0% | 5% | 84% | 100% | 0% | 40% | 100% | 100% | 39% | 61% | 100% | 100% | mortality at 40 µg/disc (Musca domestica [7]; 0.04 mg/disc): 68%; mortality at 110 µg/disc (Musca domestica [7]; 0.11 mg/disc): 93%; mortality at 330 µg/disc (Musca domestica [7]; 0.33 mg/disc): 100%; mortality at 1000 µg/disc (Musca domestica [7]; 1.00 mg/disc): 100%; mortality at 3000 µg/disc (Musca domestica [7]; 3.00 mg/disc): 100%
CC1(C)C(C=C(Cl)Cl)C1C(=O)OC(C#N)c1cccc(Oc2ccccc2)c1 (stereo not shown) [5:5] | 0% | – | – | – | – | – | – | – | – | – | – | – | – | – | – | – | – | – | – | – | 24 hours' mortality % (Tribolium confusum [1]; 0.06 mg/disc, 1440 min): 43%; mortality at 250 µg/disc (Tribolium confusum [1]; Tribolium confusum, 24 h, 0.25 mg/disc): 100%; mortality at 1000 µg/disc (Tribolium confusum [1]; Tribolium confusum, 24 h, 1.00 mg/disc): 100%
CC1(C)[C@H](C=C(Cl)Cl)[C@@H]1C(=O)O[C@@H](C#N)c1cccc(Oc2ccccc2)c1 [Ih] | – | 38% | 80% | 100% | 0% | 0% | 0% | 0% | 0% | 0% | 0% | 8% | 0% | 0% | 0% | 67% | 0% | 0% | 0% | 88% | mortality at 110 µg/disc (Tribolium confusum [2]): 0%
